One assay deals with T1, Stat1 (pY701) (Homo sapiens, UniProt P42224).
T1 construct: endogenous in cells; host or cells: HepG2
T1 sequence (P42224 1-750): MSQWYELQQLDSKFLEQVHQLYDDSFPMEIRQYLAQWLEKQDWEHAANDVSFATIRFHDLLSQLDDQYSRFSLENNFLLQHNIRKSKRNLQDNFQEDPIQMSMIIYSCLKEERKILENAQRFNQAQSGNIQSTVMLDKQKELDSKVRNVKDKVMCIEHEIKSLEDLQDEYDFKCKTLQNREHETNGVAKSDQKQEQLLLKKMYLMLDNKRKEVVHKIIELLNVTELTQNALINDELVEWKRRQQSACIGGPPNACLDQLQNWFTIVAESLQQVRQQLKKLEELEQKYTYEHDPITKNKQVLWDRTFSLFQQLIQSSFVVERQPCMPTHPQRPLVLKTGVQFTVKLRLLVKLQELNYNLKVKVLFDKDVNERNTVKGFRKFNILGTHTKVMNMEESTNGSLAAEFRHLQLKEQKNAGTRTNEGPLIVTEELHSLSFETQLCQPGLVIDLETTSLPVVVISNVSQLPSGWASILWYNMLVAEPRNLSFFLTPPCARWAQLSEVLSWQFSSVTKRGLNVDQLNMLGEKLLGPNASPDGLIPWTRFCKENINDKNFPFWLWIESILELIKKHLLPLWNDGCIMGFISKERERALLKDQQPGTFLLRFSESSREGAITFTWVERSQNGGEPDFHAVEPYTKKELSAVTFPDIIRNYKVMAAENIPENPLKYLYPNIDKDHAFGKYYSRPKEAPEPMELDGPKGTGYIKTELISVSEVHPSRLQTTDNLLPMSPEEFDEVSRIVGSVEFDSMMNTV
Kind of assay: Immunoblot: IFN-γ-mediated phosphorylation of Stat1 in HepG2 cells. In kind it is cell-based. The following applies: HepG2, compound 300 μM, 1 hour. The procedure: HepG2 cells were pretreated with DMSO alone or DMSO containing each of the compounds at a concentration of 300 μM for 60 min. Cells were then stimulated with IFN-γ (30 ng/ml) for 30 min. Protein extracts of cells were separated by SDS-PAGE and immunoblotted serially with antibodies to pStat1, total Stat1 and β-actin. Blots were stripped between each immunoblotting. The results shown are representative of 2 or more experiments.
Immunoblot assay. The human hepatocellular carcinoma cell line (HepG2) was grown in 6-well plates under standard conditions. Cells were pretreated with compounds (0, 1, 3, 10, 30, 100 and 300 uM) for 1 hour then stimulated under optimal conditions with either interferon gamma (IFN-γ; 30 ng/ml for 30 min) to activate Stat1 or interleukin-6 (IL-6; 30 ng/ml for 30 min) to activate Stat3 (30-31). Cultures were then harvested and proteins extracted using high-salt buffer, as described (Shao et al., 2006). Briefly, extracts were mixed with 2× sodium dodecyl sulfate (SDS) sample buffer (125 mmol/L Tris-HCL pH 6.8; 4% SDS; 20% glycerol; 10% 2-mercaptoethanol) at a 1:1 ratio and heated for 5 minutes at 100° C. Proteins (20 μg) were separated by 7.5% SDS-PAGE and transferred to polyvinylidene fluoride (PVDF) membrane (Millipore, Waltham, Mass.) and immunoblotted. Prestained molecular weight markers (Biorad, Hercules, Calif.) were included in each gel. Membranes were probed serially with antibody against Stat1 pY^701 or Stat3 pY^705 followed by antibody against Stat1 or Stat3 (Transduction labs, Lexington, Ky.) then antibody against β-actin (Abcam, Cambridge, Mass.). Membranes were stripped between antibody probing using Restore™ Western Blot Stripping Buffer (Thermo Fisher Scientific Inc., Waltham, Mass.) per the manufacturer's instructions. Horseradish peroxidase-conjugated goat-anti-mouse IgG was used as the secondary antibody (Invitrogen Carlsbad, Calif.) and the membranes were developed with enhanced chemiluminescence (ECL) detection system (Amersham Life Sciences Inc.; Arlington Heights, Ill.).
EXP IIC. Ligand-mediated pStat3 and pStat1 inhibition assays. […] Briefly, human hepatocellular carcinoma cells (HepG2) are grown in 6-well plates and pretreated with compounds (0, 0.1, 0.3, 1, 3, 10, 30, 100 μM) for 1 hour then stimulated under optimal conditions with either interleukin-6 (IL-6; 30 ng/ml for 30 min) to activate Stat3 or interferon gamma (IFN-γ; 30 ng/ml for 30 min) to activate Stat1. Cells are harvested and proteins extracted using high-salt buffer, mixed with 2× sodium dodecyl sulfate (SDS) sample buffer (125 mmol/L Tris-HCL pH 6.8; 4% SDS; 20% glycerol; 10%2-mercaptoethanol) at a 1:1 ratio then heated for 5 minutes at 100° C. Proteins (20 μg) are separated by 7.5% SDS-PAGE and transferred to polyvinylidene fluoride (PVDF) membrane (Millipore, Waltham, Mass.) and immunoblotted. Membranes are probed serially with antibody against Stat1 pY701 or Stat3 pY705 followed by antibody against Stat1 or Stat3 (Transduction labs, Lexington, Ky.) then antibody against β-actin (Abcam, Cambridge, Mass.). Membranes are stripped between antibody probings using Restore™ Western Blot Stripping Buffer (Thermo Fisher Scientific Inc., Waltham, Mass.) per the manufacturer's instructions. Horseradish peroxidase-conjugated goat-anti-mouse IgG is used as the secondary antibody (Invitrogen Carlsbad, Calif.) and the membranes are developed with enhanced chemiluminescence (ECL) detection system (Amersham Life Sciences Inc.; Arlington Heights, Ill.). Band intensities are quantified by densitometry. The value of each pStat3 band is divided by its corresponding total Stat3 band intensity; the results are normalized to the DMSO-treated control value. This value was plotted as a function of the log compound concentration. The best-fitting curve is determined using 4-Parameter Logistic Model/Dose Response/XLfit 4.2, IDBS software and was used to calculate the IC50 value.
(In western blotting, separated proteins are transferred to a membrane and probed.)

The next assay deals with T2, Stat3:hSIE complex (Homo sapiens, UniProt P40763).
T2 construct: endogenous in cells; host or cells: HepG2
The assay can be described thus: Electrophoretic mobility shift assay (Stat3 DNA binding, hSIE probe). The following applies: extracts of IL-6-stimulated HepG2 cells, compound 300 μM. In kind it is biochemical. As for the experimental part: Electrophoretic mobility shift assays were performed using whole-cell extracts prepared from HepG2 cells without and with stimulation with IL-6 (30 ng/ml) for 30 min. Protein (20 μg) was incubated with radiolabeled duplex oligonucleotide (hSIE) and DMSO without or with the indicated compounds (300 uM) for 60 minutes at 37° C. then separated by PAGE. The gel was dried and autoradiographed; the portion of the gel corresponding to the Stat3-bound hSIE band is shown. Data shown are representative of 2 studies.
Electrophoretic Mobility Shift Assay (EMSA): EMSA was performed using the hSIE radiolabeled duplex oligonucleotide as a probe as described (Tweardy et al., 1995). Briefly, high salt extracts were prepared from HepG2 cells incubated without or with IL-6 (30 ng/ml) for 30 minutes. Protein concentration was determined by Bradford Assay and 20 ug of extract was incubated with compound (300 uM) for 60 minutes at 37° C. […] Gels were dried and autoradiographed.
Once in the nucleus, Stat3 dimers bind to specific DNA elements to activate and, in some instances, repress gene transcription. […] Compounds that bind to the phosphopeptide-binding site of Stat3 might be expected to do the same. […]
For orientation: A gel shift assay detects complexes by their altered migration in electrophoresis.

T2 sequence (P40763 2-770 limits assumed, one chain of several): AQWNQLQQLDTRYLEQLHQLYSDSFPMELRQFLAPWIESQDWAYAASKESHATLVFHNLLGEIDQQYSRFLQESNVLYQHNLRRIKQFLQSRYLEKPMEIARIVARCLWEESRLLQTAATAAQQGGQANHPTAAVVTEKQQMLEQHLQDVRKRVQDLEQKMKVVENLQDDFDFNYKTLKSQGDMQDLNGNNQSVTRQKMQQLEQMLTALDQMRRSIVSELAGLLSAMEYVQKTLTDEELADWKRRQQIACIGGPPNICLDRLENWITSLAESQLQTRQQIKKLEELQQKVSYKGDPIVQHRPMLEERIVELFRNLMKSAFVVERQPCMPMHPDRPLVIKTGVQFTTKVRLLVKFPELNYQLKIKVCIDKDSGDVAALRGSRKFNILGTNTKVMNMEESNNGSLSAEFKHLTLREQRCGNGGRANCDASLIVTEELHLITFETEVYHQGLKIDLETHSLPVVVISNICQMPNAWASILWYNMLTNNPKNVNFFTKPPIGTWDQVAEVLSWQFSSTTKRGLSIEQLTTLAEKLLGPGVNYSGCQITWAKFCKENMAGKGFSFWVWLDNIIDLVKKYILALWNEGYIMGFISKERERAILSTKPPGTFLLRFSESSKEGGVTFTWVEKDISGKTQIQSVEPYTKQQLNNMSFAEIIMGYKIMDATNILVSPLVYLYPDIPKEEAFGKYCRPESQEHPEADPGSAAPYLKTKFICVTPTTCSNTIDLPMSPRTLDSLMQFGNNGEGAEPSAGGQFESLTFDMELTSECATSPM

For `O=C(O)c1ccc(C=CC(=O)c2ccc3c(c2)OCCO3)cc1` [Cpd3, 4-[3-(2,3-dihydro-1,4-benzodioxin-6-yl)-3-oxo-1-propen-1-yl]benzoic acid], on Stat1 (pY701), the “Stat1 phosphorylation after IFN-γ stimulation” value (shortened to “Stat1 phosphorylation”) is “did not”. Moreover, the “amount of hSIE shifted (Stat3:hSIE band intensity)” value on Stat3:hSIE complex is given as “reduced the amount of hSIE shifted by half or greater”.

As for `CCOc1cc(C=C2C(=O)c3ccccc3C2=O)cc(Cl)c1OCc1cccc(C(=O)O)c1` [Cpd3-2, 3-({2-chloro-4-[(1,3-dioxo-1,3-dihydro-2H-inden-2-ylidene)methyl]-6-ethoxyphenoxy}methyl)benzoic acid], the “Stat1 phosphorylation” value on Stat1 (pY701) is recorded as “did not”.

Regarding `CCN1C(=O)C(=Cc2ccc(-c3cc(C(=O)O)ccc3Cl)o2)C(=O)N(CC)C1=S` [Cpd30-12, 4-chloro-3-{5-[(1,3-diethyl-4,6-dioxo-2-thioxotetrahydro-5(2H)-pyrimidinylidene)methyl]-2-furyl}benzoic acid], at Stat1 (pY701), the “Stat1 phosphorylation” value is on record as “blocked Stat1 phosphorylation”.

(Values after patent US10112933B2, “Methods and compositions for treatment of fibrosis” (Baylor College of Medicine, priority 2013, dated 2018).)
